Test results taken from patent US4683229A, “6-halo-9-alkenyleneoxy-3-alkyl-2,3,4,5-tetrahydro-(1H-3)-benzazepines and their use as selective alpha-adrenergic receptor antagonists” (SmithKline Beckman Corporation, priority 1986, dated 1987).
“Also recorded” adds a separate entry of the source. Where two headings read alike, the source gives them in different places.

Assays:
[1] = tested on: alpha1 adrenoceptor (rabbit aorta); assay: Alpha1 activity in rabbit aorta segments: antagonism of norepinephrine contraction; format: cell-based; conditions: for Kb: read-out: KB alpha1 Aorta, norepinephrine agonist
Method: Alpha1 activity was determined using the rabbit aorta. Male New Zealand White rabbits (2-4 Kg) were euthanized by cervical concussion. A 4 cm portion of the thoracic aorta was removed and placed in a dish of cold (10° C.) Krebs-Hensleit solution. The tissue was cleaned of fat and connective tissue and cut into segments of approximately 3 mm in length. These segments were suspended in 10 ml tissue baths via hangers constructed of 0.25 mm tungsten wire. One hanger was fixed to a support in the bath, the other attached via silk thread to a force-displacement transducer.
Tissue segments were equilibrated for 2 hours prior to drug testing, during which time basal tension was maintained at 2 gm. Tissues were washed at 30 minute intervals during this equilibration period. The Krebs-Hensleit solution contained cocaine (6 μM) to block neuronal uptake and propranolol (1 μM) to block beta-adrenoceptors. Tissues were usually challenged once with norepinephrine (0.1 μM) during the equilbration period to check for viability.
A cumulative concentration-response curve to norepinephrine was obtained in each aortic segment. Following washout of norepinephrine, the alpha adrenoceptor antagonist to be tested was added to the bath. After the tissue had been in contact with the antagonist for 30-60 minutes, the norepinephrine concentration response-curve was repeated in the presence of antagonist. The tissue was then washed again, and a tenfold higher concentration of antagonist added. Following equilibration (30-60 minutes), a third norepinephrine concentration-response curve was determined in the presence of the antagonist.
(§1) The receptor dissociation constant (KB) for the antagonist was determined using the relationship [formula] (Furchgott, R. F., Handbook of Experimental Pharmacology, eds. Eichler, et al., pp. 283-335 (Springer 1972)). The KB value obtained at each antagonist concentration was averaged to obtain a mean KB for each experiment.
(§2) The results are expressed in nanomolar concentrations. Compound (D) is the prior art compound mentioned above; compounds (E) and (F) are compounds of the present invention.

[2] = molecular target: T1, alpha2 receptor (guinea pig left atrium) (Cavia porcellus, UniProt Q60474); assay: Alpha2 activity in isolated, superfused guinea pig left atrium: antagonism of clonidine; format: cell-based; conditions: for alpha2 effects in guinea pig atrium (in words): up to the highest tested concentration
T1 construct: The left atrium is separated, dissected free of extraneous tissue; from tissue; host or cells: isolated left atrium of male guinea pig
T1 sequence (Q60474 1-464): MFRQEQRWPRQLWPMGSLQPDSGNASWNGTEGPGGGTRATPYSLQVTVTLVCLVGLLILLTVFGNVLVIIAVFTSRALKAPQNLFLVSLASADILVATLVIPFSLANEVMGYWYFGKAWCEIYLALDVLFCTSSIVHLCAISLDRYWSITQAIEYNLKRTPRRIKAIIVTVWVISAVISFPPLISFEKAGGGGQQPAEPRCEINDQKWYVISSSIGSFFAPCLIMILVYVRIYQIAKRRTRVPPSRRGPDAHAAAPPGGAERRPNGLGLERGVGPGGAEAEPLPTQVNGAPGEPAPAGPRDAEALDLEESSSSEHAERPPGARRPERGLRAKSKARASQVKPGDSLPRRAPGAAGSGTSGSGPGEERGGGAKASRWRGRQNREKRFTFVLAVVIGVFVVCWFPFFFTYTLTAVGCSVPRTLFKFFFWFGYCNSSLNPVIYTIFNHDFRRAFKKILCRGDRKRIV
Method: as §1
One of the two systems employed to determine alpha2 activity of the compounds was the isolated, superfused guinea pig left atrium. Briefly, the heart is removed from a pentobarbital-anesthetized male guinea pig. The left atrium is separated, dissected free of extraneous tissue and mounted in a 2 ml superfusion chamber. The tissue is paced at 60 pulse/minute and the sympathetic nerves excited at 6 minute intervals by field stimulation. The response to nerve stimulation is measured as the difference in contractile force between the basal contraction and peak contraction following a nerve stimulation. A concentration-response curve for clonidine (a known alpha2 […]) is prepared by administering increasing concentrations of clonidine following each successive stimulation. The tissue then is superfused for thirty minutes with the alpha-adrenoceptor antagonist to be tested and the clonidine concentration-effect curve is repeated in the presence of antagonist. Data are reported as KB, defined above. Additional details of this test system are found in Hieble, J. P. and R. G. Pendleton, Arch. Pharmacol., 309:217-224 (1979).
as §2

[3] = molecular target: T2, alpha2 receptor (guinea pig vas deferens) (Cavia porcellus, UniProt Q60474); assay: Alpha2 activity in isolated, superfused guinea pig vas deferens: stimulated/basal 3H-norepinephrine release; format: cell-based; conditions: for alpha2 effects in guinea pig vas deferens (in words): up to the highest tested concentration
T2 construct: both vasa deferentia were removed and placed in a dish; from tissue; host or cells: isolated vas deferens of male guinea pigs
T2 sequence (Q60474 1-464): T1 sequence (Q60474 1-464)
From the text: The second system utilized in determining the alpha2 activity of the compounds of interest is the isolated, superfused guinea pig vas deferens (Vas Def). From male (300-600 g) guinea pigs sacrificed by administration of a lethal amount of pentobarbital, both vasa deferentia were removed and placed in a dish containing a cold nutrient-buffer solution. The tissue was cleaned and the fibrous sheath removed gently. The ends were trimmed to yield segments about 4 cm in length and 4-0 silk ties attached to each end. The vasa deferentia then were incubated in 10 ml of nutrient-buffer solution containing […] of ^3 H-norepinephrine. Tissue was incubated at 37° C. for 30 minutes with continuous gassing with 95% O2, 5% CO2. After incubation, the tissue was mounted in a superfusion apparatus constructed of 3 mm ID glass tubing. One end was connected, via the silk tie, to a plug constructed of silicone rubber and polyethylene with a platinum wire hook. The other tie was connected to a force-displacement transducer. About 1 g of tension was applied to the tissue, and superfusion with nutrient-buffer solution initiated at 2 ml/minute, using a peristaltic pump. The chambers had platinum electrodes fused through the glass at the top and bottom to allow field stimulation of the tissue.
Before compound testing, tissues were equilibrated for at least 2 hours, during which time stimulation (3 Hz, 0.7 msec pulse duration, 80 V) was applied for 2 minutes at 30 minute intervals. Following this equilibration period, three control stimulations were performed. For each stimulation, two effluent samples were collected directly into 20 ml scintillation vials; one prior to, and one during field stimulation. The basal sample was collected during a 2 minute interval immediately prior to stimulation. The stimulation sample was collected beginning 30 seconds after initiation of stimulation, and continuing for 30 seconds following termination of the field stimulation. This lag period is to allow for the dead space in the superfusion chamber. This collection-stimulation procedure was repeated at 20 minute intervals. Following the third control collection, compound was added into the superfusion flow; 20 minutes later the collection-stimulation was repeated in the presence of compound. Compound concentration was increased ten-fold following each stimulation, and the cycle repeated until four drug concentrations had been tested. A final stimulation-collection was performed after termination of compound superfusion.
Ten ml of standard scintillation fluid (Aquasol-II) was added to all samples, and the DPM values were determined on a beta-scintillation counter. The stimulated/basal release ratio was determined for each pair. The stimulated/basal ratios for the three initial control collections were averaged to obtain a mean control ratio. The compound effect was determined by comparing the stimulated/basal ratio in the presence of increasing compound concentration to the mean control ratio. The EC50 was defined as the compound concentration producing a 50% increase in the stimulated/basal release ratio.
as §2

[4] = tested on: alpha3 receptor (dog saphenous vein); assay: Alpha3 activity in dog saphenous vein: shift of BHT-920 dose-response curve; format: cell-based; conditions: for separation in the concentrations producing alpha2 and alpha3 effects: guinea pig vas deferens (alpha2) vs dog saphenous vein (alpha3); for Kb: read-out: KB alpha3 DSV, BHT-920 agonist; for Kb / antagonism in the alpha3 test system (in words): dog saphenous vein
Method: as §1
The dog saphenous vein (DSV) was used as the test system for measuring activity of the compounds at the alpha3 receptor. This test system has been shown a suitable preparation in which to characterize postsynaptic alpha2 (alpha3) adrenoceptors. Sullivan, A. T. and G. M. Drew, Arch. Pharmacol. 314:249-58 (1980). This test system is prepared by removing the lateral saphenous vein from an anesthetized dog and cutting the vein into segments of 10 mm in length. Each segment then is cut into a helical strip and mounted, in a tissue bath, between a stationary tissue holder and transducer with which isometric contractions are recorded as changes in grams of tension. Additional details of this methodology are found in Fowler, P. J., et al., J. Pharmacol. Exp. Ther. 229:712-18 (1984).
The alpha3 activity of the compounds of interest is determined by measuring shifts in the dose-response curve of a specific agonist induced by the tested compounds. The alpha2 specific agonist, BHT-920, was used in testing the compounds listed in Table I. Data are reported as KB, defined above.
as §2

[5] = Mean arterial blood pressure and heart rate in spontaneously hypertensive rats; format: in vivo; conditions: 1.5 mg/kg intravenously
Method: Further, spontaneously hypertensive rats were dosed, intravenously, at a dose of 1.5 mg/kg, with a solution of one of the compounds of the invention (Compound E, Table I) and mean arterial blood pressure was monitored for 45 minutes using indwelling cannulae positioned in the tail arteries. At the end of the 15 minute infusion, systolic and diasystolic pressures had reached their nadirs and were each approximately 30 to 35 mm Hg below vehicle-treated controls. Thirty minutes following cessation of the infusion, systolic and diasystolic pressures remained approximately 20 mm Hg less than the controls. Also, heart rate was measured during the period blood pressure was monitored.

[6] = thirty minutes following cessation of the infusion

| Structure (SMILES) | alpha1 activity compared among compounds D, E and F (in words) [1] | Kb [1] [nM] | Kb [2] [nM] | alpha2 effects in guinea pig atrium (in words) [2] | EC50 [3] [nM] | alpha2 effects in guinea pig vas deferens (in words) [3] | alpha3 adrenoceptor selectivity vis-a-vis alpha2 (in words) ([4]; alpha3 vs alpha2, hydrochloride) | separation in the concentrations producing alpha2 and alpha3 effects [4] | Kb [4] [nM] | Kb ([2]; guinea pig left atrium, clonidine, read-out: KB alpha2 Atrium) [nM] | EC50 ([3]; guinea pig vas deferens, concentration producing a 50% increase in the stimulated/basal release ratio, read-out: EC50 alpha2 Vas Def) [nM] | antagonism in the alpha3 test system (in words) [4] | reflex tachycardia (heart rate) ([5]; heart rate measured during blood pressure monitoring) | diastolic pressure less than controls, after infusion [5, 6] | systolic pressure less than controls, after infusion [5, 6] |
| --- | --- | --- | --- | --- | --- | --- | --- | --- | --- | --- | --- | --- | --- | --- | --- |
| C=CCOc1ccc(Cl)c2c1CCN(C)CC2.Cl [D, 9-allyloxy-6-chloro-3-methyl-2,3,4,5-tetrahydro-1H-3-benzazepine hydrochloride, reference compound] | similar | 150 | 903 | significant activity at the alpha2 receptor | 224 | significant activity at the alpha2 receptor | does not approach the high degree of specificity exhibited by the presently invented compounds; also recorded: insignificant alpha3 -adrenoceptor selectivity | four | 54 |  |  |  |  |  |  |
| CC=COc1ccc(Cl)c2c1CCN(C)CC2 [F, 9-(1-propenyloxy)-6-chloro-3-methyl-2,3,4,5-tetrahydro-1H-3-benzazepine] | similar | 31 |  | no alpha2 effects |  | no alpha2 effects |  |  | 100 to 200 | > 1000 | > 10000 | potent antagonists |  |  |  |
| CC(C)=CCOc1ccc(Cl)c2c1CCN(C)CC2 [Compound E, 9-(3-methyl-2-butenyloxy)-6-chloro-3-methyl-2,3,4,5-tetrahydro-1H-3-benzazepine] | similar | 150 | > 10000 | no alpha2 effects | > 10000 | no alpha2 effects |  | ≥ 200 fold | 37 |  |  | potent antagonists | No statistically significant reflex tachycardia | approximately 20 mm Hg | approximately 20 mm Hg |
